Legend:
[1] = test system: PANC-1 pancreatic carcinomas; assay: PANC-1 pancreatic carcinoma xenograft model; format: in vivo, nude mice; conditions: PANC-1 xenograft, po x 21 days
Experimental: The PANC-1 pancreatic carcinomas used for implantation were maintained by serial engraftment in nude mice. […] Tumor size, in mm3, was calculated from: Tumor Volume=(w2×l)/2 where w=width and l=length, in mm, of the tumor. […] Group 1 mice received the Compound A1 and Compound B1 vehicles, and served as controls for all analyses. […] Each animal was euthanized when tumor volume reached 1200 mm3, or on the last day of the study ([…]). For each animal whose tumor reached the endpoint volume, the time to endpoint (TTE) was calculated by the following equation: TTE=(log10(endpoint volume)-b)/m Where TTE is expressed in days, endpoint volume is in mm3, b is the intercept, and m is the slope of the line obtained by linear regression of a log-transformed tumor growth data set. […] The calculated TTE is usually less than the day on which an animal is euthanized for tumor size. […] Treatment efficacy was determined from tumor growth delay (TGD), which is defined as the increase in the median TTE for a treatment group compared with the control group: TGD=T-C, expressed in days, or as a percentage of the median TTE of the control group: % TGD=[(T-C)/C]×100, where: T=median TTE for a treatment group, C=median TTE for the designated control group.

[2] = test system: Jeko-1 xenograft; assay: Jeko-1 mantle cell lymphoma xenograft model; format: in vivo; conditions: 35 day treatment period, single agents
Text: A Jeko-1 xenograft model was used to measure anti-tumor activity in a 35 day treatment period of Compound A1, Compound B1, and the combination of Compounds A1 and B1. Significant anti-tumor activity was observed.

[3] = test system: Jeko-1 mantle cell lymphoma cells; assay: Cell Titer-Glo cell viability assay, single agents and combinations; format: cell-based; conditions: 72 hrs
Experimental: The Cell Titer-Glo Luminscent Cell Viability Assay (Promega#G7572) generates a luminescent signal that is proportional to the number of metabolically active cells present in a reaction, based on the quantitation of ATP. Cell Titer-Glo Reagent was prepared by thawing a vial of Cell Titer-Glo Buffer in a 37° C. water bath. The entire bottle of buffer was then added to the bottle of lyophilized Cell Titer-Glo Substrate provided in the kit. Lyophilized substrate was allowed to dissolve; the solution was then mixed by inversion and was ready for use. Jeko-1 cells were diluted to a density of 200,000 cells/mL and cultured in T250 flask. Before treatment (time 0), 3×100 micro liter aliquots were removed and placed into a black 96 well plate with clear bottom (Costar#3904). 50 uL of CTG reagent was added to each well. The plate was placed on an Orbital Shaker, protected from light and incubated using setting 4 for 30 minutes at RT. The plate was then read using the Envision Luminometer, and results exported. The cells remaining in the T250 flasks were either left untreated or treated with single agents or in combinations. […] Results were exported and analyzed using Microsoft Excel. The percentage of viable cells as compared to control growth was calculated using following equation: […]
A is the CTG read under treatment condition
B is the CTG read for Time 0 cells
C is CTG read for 72 hr untreated cells […]

SMILES	anti-tumor activity ([1]; Compound B1 10 mg/kg qd)	anti-tumor activity [2]	% cell growth compared to the vehicle control ([3]; mTOR inhibitor alone at 1, 2.5 and 5 nM (all three concentrations))	anti-tumor activity ([1]; Compound A1 250 mg/kg qd)	% cell growth compared to the vehicle control ([3]; 100 nM CDK4/6 inhibitor alone)
COC1CC2CC[C@@H](C)C(O)(O2)C(=O)C(=O)N2CCCCC2C(=O)O[C@H](C(C)C[C@@H]2CCC(OCCO)[C@H](OC)C2)CC(=O)C(C)/C=C(\C)C(O)C(OC)C(=O)[C@H](C)CC(C)/C=C/C=C/C=C/1C (stereo in doubt) [Compound B1, (1R,9S,12S,15R,16E,18R,19R,21R,23S,24E,26E,28E,30S,32S,35R)-1,18-dihydroxy-12-{(1R)-2-[(1S,3R,4R)-4-(2-hydroxyethoxy)-3-methoxycyclohexyl]-1-methylethyl}-19,30-dimethoxy-15,17,21,23,29,35-hexamethyl-11,36-dioxa-4-aza-tricyclo[30.3.1.04,9]hexatriaconta-16,24,26,28-tetraene-2,3,10,14,20-pentaone]	neither Compound A1 nor Compound B1 had significant anti-tumor activity	had anti-tumor activity	approximately 30%	–	–
CN(C)C(=O)c1cc2cnc(Nc3ccc(N4CCNCC4)cn3)nc2n1C1CCCC1 [Compound A1, 7-Cyclopentyl-2-(5-piperazin-1-yl-pyridin-2-ylamino)-7H-pyrrolo[2,3-d]pyrimidine-6-carboxylic acid dimethylamide]	–	had anti-tumor activity	–	neither Compound A1 nor Compound B1 had significant anti-tumor activity	70%

— patent US20160008367A1, “Combination Comprising a Cyclin Dependent Kinase 4 or Cyclin Dependent Kinase (CDK4/6) Inhibitor for Treating Cancer” (Novartis AG, priority 2010, published 2016)
